Results on eleven compounds are retold here after ChEMBL document CHEMBL1201862, “PubChem BioAssay data set” (2004).

Molecules are shown by their SMILES.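 Interpolation was linear, between the two tested concentrations surrounding the appropriate level; five concentrations were tested over 48 hours in 96-well plates. Abbreviation: GI50, concentration required for 50% inhibition of growth.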 Activity calls are given as the source filed them. Cut-off read from the data, not from the text of the source: active = GI50 up to about 1.1 µM and inactive = higher.

Holding throughout (assay): NCI tumour cell line growth inhibition, 48 h
For test [1], the system named is UACC-257.
In test [2] the test system is COLO 205.
For test [3], the system named is UO-31.
Test [4] has as its system SK-MEL-28.
The test system of test [5] is LOX IMVI.
Test [6] has as its system Malme-3M.
Test [7] concerns SW-620.
Test [8] relates to MDA-MB-435.
Test [9] concerns SN12C.
Test [10] has as its system MDA-MB-231.
In test [11] the test system is RXF 393.
Test [12] relates to PC-3.
In test [13] the test system is NCI-H522.
For test [14], the system named is U-251.
Test [15] relates to ACHN.
Test [16] deals with SF-295.
Test [17] deals with OVCAR-3.
In test [18] the test system is 786-0.
Test [19] deals with SK-MEL-5.
Test [20] relates to MDA-N.

For the compound `COc1ccc(OC)c([N+](=O)[O-])c1-c1nc2sc(Cl)cn2c1/C=N/N=C(N)N`, the GI50 in test [1] was 19.3 µM (inactive); in test [2] it was 15.3 µM (inactive); in test [3] it was 16.7 µM (inactive); in [4] it was 13.9 µM (inactive); in [5], 25 µM (inactive); in test [6], 22.5 µM (inactive). For the same compound, the GI50 was 20.2 µM (inactive) in test [7]; 17.5 µM (inactive) in test [8]; 17.3 µM (inactive) in test [9]; 15.1 µM (inactive) in test [10]; 20.1 µM (inactive) in test [11]; 13.8 µM (inactive) in [12]. For the same compound, the GI50 in test [13] is 16.6 µM (inactive); in [14], 24.8 µM (inactive); in test [15], 28.6 µM (inactive); in [16], 24.9 µM (inactive); in [17], 16 µM (inactive); in [18], 42.9 µM (inactive). The GI50 in [19] is 14.4 µM (inactive).
Regarding `CCNC1=C(NC(=O)CCl)C(=O)c2ccccc2C1=O`, the GI50 in [1] is > 10 µM (inactive); in [2], > 10 µM (inactive); in test [20] it was 15.6 µM (inactive); in test [4], 17.6 µM (inactive); in test [6], 19.9 µM (inactive); in test [7] it was 25.8 µM (inactive). In addition, the GI50 was 19.1 µM (inactive) in test [8]; 17.9 µM (inactive) in test [9]; 21.5 µM (inactive) in [10]; 16.7 µM (inactive) in test [11]; 16 µM (inactive) in test [12]; 15.1 µM (inactive) in test [13]. In addition, the GI50 in test [14] is 20.3 µM (inactive); in test [15] it was 18 µM (inactive); in test [16], 19.4 µM (inactive); in [17] it was 17.7 µM (inactive); in test [18], 34.4 µM (inactive); in test [19], 16.7 µM (inactive).
As for `Oc1nc(S)nc2c1CN(CCCN1CCOCC1)CN2`, the GI50 in [1] is 40.2 µM (inactive); in test [2], 18.3 µM (inactive); in test [20], 43.6 µM (inactive); in test [3] it was 36.8 µM (inactive); in test [4], > 100 µM (inactive); in [5] it was 24.7 µM (inactive). Besides, the GI50 in test [6] is 19.7 µM (inactive); in test [7], 32 µM (inactive); in test [8] it was 22.5 µM (inactive); in test [9], 46.7 µM (inactive); in test [10], 26.7 µM (inactive); in test [12] it was 22.1 µM (inactive). Besides, the GI50 in test [13] is 21.2 µM (inactive); in [14], 33.5 µM (inactive); in test [15], 29.2 µM (inactive); in [16], 28.2 µM (inactive); in [17], 38.5 µM (inactive); in test [18] it was 40.4 µM (inactive). Moreover, the GI50 in test [19] is 31 µM (inactive).
With `COc1cccc(CCNc2c(C#N)c3nc4ccccc4n3c3ccccc23)c1`, the GI50 in test [1] was 0.851 µM (active); in test [2], 0.447 µM (active); in [3], 2.81 µM (inactive); in test [4], 1.22 µM (inactive); in [5], 0.63 µM (active); in test [6] it was 0.239 µM (active). Moreover, the GI50 was 0.51 µM (active) in [7]; 0.118 µM (active) in [8]; 3.19 µM (inactive) in [9]; 2.33 µM (inactive) in [10]; 0.607 µM (active) in test [11]; 1.11 µM (active) in test [12]. Further, the GI50 in [13] was 0.063 µM (active); in test [14], 0.721 µM (active); in test [15], 0.998 µM (active); in test [16] it was 0.364 µM (active); in [17], 3.87 µM (inactive); in test [18], 0.541 µM (active). In test [19], the GI50 is 0.186 µM (active).
Consider `NC(CCCCNC(=O)OCc1ccccc1)C(=O)NC(CCCCNC(=O)OCc1ccccc1)C(=O)ON1C(=O)CCC1=O` (centres undefined), for which the GI50 in test [1] is > 100 µM (inactive); in test [2], > 100 µM (inactive); in test [20], > 100 µM (inactive); in [3] it was > 100 µM (inactive); in test [4], > 100 µM (inactive); in test [6], 61.4 µM (inactive). Also, the GI50 is > 100 µM (inactive) in [7]; > 100 µM (inactive) in [9]; > 100 µM (inactive) in test [10]; 52.7 µM (inactive) in test [11]; > 100 µM (inactive) in test [12]; > 100 µM (inactive) in [14]. Besides, the GI50 in [15], in test [18] and in test [19] was > 100 µM (inactive) in each case.
On to `COc1ccc2cc(C(=O)O)ccc2c1OC`, for which the GI50 in test [1], in test [2], in test [20], in test [3], in [6] and in test [7] was > 100 µM (inactive) each time. The GI50 in test [8], in test [9], in test [10], in test [12], in test [13] and in [14] was > 100 µM (inactive) each time. Also, the GI50 in [15], in test [16], in [17], in [18] and in test [19] was > 100 µM (inactive) throughout.
In the case of `C=C1c2nc3ccccc3n2C=C(c2ccccc2)N1c1ccc(C)cc1`, the GI50 in test [1] was 80.4 µM (inactive); in test [2], 73.5 µM (inactive); in test [3], 36.1 µM (inactive); in test [5], 33.6 µM (inactive); in test [6], > 100 µM (inactive); in [7], 71.1 µM (inactive). For the same compound, the GI50 is 33.2 µM (inactive) in [8]; 85.5 µM (inactive) in [9]; > 100 µM (inactive) in test [10]; 59.6 µM (inactive) in test [11]; 50.4 µM (inactive) in [12]; 35.1 µM (inactive) in test [13]. In addition, the GI50 in [14] is 88.1 µM (inactive); in [15], 53.5 µM (inactive); in test [16], > 100 µM (inactive); in [17], 75 µM (inactive); in test [18], 45.3 µM (inactive); in test [19] it was 25.7 µM (inactive).
As for `CCCCn1c2c(c3ccccc3c1=O)C(=O)c1ccccc1-2`, the GI50 in [1] was > 100 µM (inactive); in [2], 20.4 µM (inactive); in [20] it was > 100 µM (inactive); in test [3] it was 2.79 µM (inactive); in test [4] it was > 100 µM (inactive); in test [5], > 100 µM (inactive). For the same compound, the GI50 in test [6] was > 100 µM (inactive); in test [7], > 100 µM (inactive); in [8], > 100 µM (inactive); in test [9] it was > 100 µM (inactive); in [10], 94 µM (inactive); in [12], > 100 µM (inactive). The GI50 was 37.8 µM (inactive) in [13]; 66.1 µM (inactive) in [14]; 37.8 µM (inactive) in test [16]; > 100 µM (inactive) in test [17]; 25.3 µM (inactive) in test [18]; 5.98 µM (inactive) in test [19].
Take `CC(C)(C)C1=CC(=C2C=Cc3cc(O)ccc3O2)C=C(C(C)(C)C)C1=O`: the GI50 was 1.57 µM (inactive) in [1]; 1.72 µM (inactive) in [2]; 1.24 µM (inactive) in [3]; 1.73 µM (inactive) in [4]; 1.56 µM (inactive) in test [5]; 1.59 µM (inactive) in test [6]. Besides, the GI50 was 1.38 µM (inactive) in test [7]; 1.5 µM (inactive) in test [8]; 1.63 µM (inactive) in test [9]; 1.7 µM (inactive) in test [10]; 1.45 µM (inactive) in test [11]; 1.57 µM (inactive) in [12]. Further, the GI50 was 1.48 µM (inactive) in test [13]; 1.39 µM (inactive) in [14]; 1.69 µM (inactive) in test [15]; 1.87 µM (inactive) in test [16]; 1.21 µM (inactive) in test [17]; 1.36 µM (inactive) in [18]. In test [19], the GI50 was 1.58 µM (inactive).
Turning to `c1cc(-c2ccc(-c3ccc(-c4ccc(-c5cccc6nsnc56)[nH]4)c4nsnc34)[nH]2)c2nsnc2c1`, the GI50 in [2], in test [20], in test [3], in test [4], in test [5] and in test [6] was > 100 µM (inactive) each time. Further, the GI50 in test [7], in [8], in test [9], in test [10], in test [12] and in test [13] was > 100 µM (inactive) each time. In addition, the GI50 in [14], in test [15], in test [16], in [17], in test [18] and in [19] was > 100 µM (inactive) throughout.
Consider `O=C(NC1CCN(Cc2ccccc2)CC1)c1cccc(I)c1`, for which the GI50 in test [1] was 16.4 µM (inactive); in test [2], 17.6 µM (inactive); in test [3], 17 µM (inactive); in test [4] it was 18 µM (inactive); in [5], 19.6 µM (inactive); in test [6], 17.1 µM (inactive). Further, the GI50 is 17.1 µM (inactive) in [7]; 17.3 µM (inactive) in test [8]; 60.5 µM (inactive) in test [9]; 17 µM (inactive) in test [10]; 51.8 µM (inactive) in test [11]; 18.5 µM (inactive) in test [12]. In addition, the GI50 in [13] was 17.8 µM (inactive); in test [14] it was 23 µM (inactive); in [15], 52.4 µM (inactive); in [16] it was 18.3 µM (inactive); in test [17] it was 40 µM (inactive); in [18], 25.4 µM (inactive). Besides, the GI50 in [19] was 16.9 µM (inactive).
